Measurements: patent publication US20050009730A1, “Treatment of cns disorders using cns target modulators” (priority 2001, published 2005)
pIC50, pKi: −log10 of the molar value. Like-named read-outs stand apart in the source and are kept apart here.

Experiments:
Histamine, H1 = Histamine, H1 (Homo sapiens, UniProt P35367); experiment: H1 binding assay by displacement of known standards; settings: for pKi: read-out: H1 Ki; for Ki: read-out: Receptor Binding Data (Ki nM) H1
Procedure: (§1) The following binding assays were performed on the Series 11 compounds described above by displacement of known standards from the H1, M1, M2, and M3 receptors, wherein H1 is a histamine receptor, and M1, M2, and M3 are muscarinic receptors.
The binding studies against the histamine receptor, H1, indicate binding affinity, and therefore the results of the binding assays are an indication of the activity of the compound. […]
The following binding assays were performed on additional compounds described above by displacement of known standards from the H1, M1, M2, and M3 receptors, wherein H1 is a histamine receptor, and M1, M2, and M3 are muscarinic receptors.
The binding assays for H1 was the same as described in Example 10 and the M1, M2, and M3 binding assays are the same as those described in Example 10 for human recombinant expressed cells.

muscarinic receptors = experiment: Muscarinic receptor binding, M1, M2 and M3 taken together in the conclusions
Procedure: as §1
In addition, the binding studies against the muscarinic receptors indicate the extent to which the compounds bind the muscarinic receptors, responsible for anti-cholinergic activity of the compound. Binding to muscarinic receptors results in several undesired side effects of many known antihistamines, e.g., dry-mouth. A decrease in the binding of the compounds to the M1-M3 receptors, relative the binding of the compound to the H1 receptor, is an indication of the greater specificity of the compound for the histamine receptor over the muscarinic receptor.

Male Wistar rats = experiment: Sleep-wakefulness, locomotor activity and body temperature monitoring (SCORE-2000), treatment at CT-18; settings: at CT-18
[1] = in human blood; cited from earlier work

Chain of Histamine, H1 (P35367 whole entry): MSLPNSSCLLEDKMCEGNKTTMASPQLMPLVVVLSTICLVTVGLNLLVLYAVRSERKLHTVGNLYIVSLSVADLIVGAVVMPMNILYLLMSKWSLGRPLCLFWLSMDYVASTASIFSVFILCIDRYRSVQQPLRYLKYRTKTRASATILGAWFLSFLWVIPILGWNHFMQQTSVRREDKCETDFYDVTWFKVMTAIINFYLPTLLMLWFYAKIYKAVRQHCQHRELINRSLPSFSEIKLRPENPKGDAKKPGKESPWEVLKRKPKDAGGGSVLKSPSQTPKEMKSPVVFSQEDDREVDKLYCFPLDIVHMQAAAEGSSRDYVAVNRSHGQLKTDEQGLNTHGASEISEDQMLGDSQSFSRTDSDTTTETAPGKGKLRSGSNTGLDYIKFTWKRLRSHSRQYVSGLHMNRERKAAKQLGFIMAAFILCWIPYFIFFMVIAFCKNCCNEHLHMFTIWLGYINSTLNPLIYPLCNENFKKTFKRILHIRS

Structure (SMILES)	Ki (Histamine, H1)	Average Bout-Length (Male Wistar rats; 30 mg/kg PO)	Duration (Male Wistar rats; 30 mg/kg PO)	Maximum Bout Length (Male Wistar rats; 30 mg/kg PO)	NREM Accum. (Male Wistar rats; 30 mg/kg PO)	NREM Peak (Male Wistar rats; 30 mg/kg PO)	Onset (Male Wistar rats; 30 mg/kg PO)	other results
O=C(CCN1CCC(=C(c2ccccc2)c2ccccc2)CC1)OC1CCOC1 (stereo not drawn) [Series 11h]	–	–	–	–	–	–	–	pIC50 (Histamine, H1): 6.70; difference in binding affinity towards the H1 receptor between the enantiomeric compounds (Histamine, H1): do not result in a substantial difference; pKi (Histamine, H1): 7.05; difference in binding affinity towards the muscarinic receptors between the enantiomeric compounds (muscarinic receptors): do show a substantial difference
O=C(CCN1CCC(=C(c2ccccc2)c2ccccc2)CC1)OC1CCOCC1 [Series 11i]	–	–	–	–	–	–	–	pIC50 (Histamine, H1): 6.70; pKi (Histamine, H1): 7.06
Cc1ccc(/C(=C\CN2CCCC2)c2cccc(C(=O)O)n2)cc1 [Series 16a]	43.9 nM	5.4 min	5 h	11.8 min	20.7 min	57.9 %/hr	180 min	–
Cl.O=C(O)CCCN1CCC(OC(c2ccccc2)c2ccccc2)CC1 [Series 53a]	16.1 nM	4.3 min	4 h	9.1 min	17.4 min	49.2 %/hr	30 min	–
Nc1ncnc2c1ncn2[C@@H]1O[C@H](CO)[C@@H](O)[C@H]1O [adenosine]	–	–	–	–	–	–	–	half-life [1]: < 1 s

More lines, main results first:

Ki (Histamine, H1)	Structure (SMILES)	Average Bout-Length (Male Wistar rats; 30 mg/kg PO)	Duration (Male Wistar rats; 30 mg/kg PO)	Maximum Bout Length (Male Wistar rats; 30 mg/kg PO)	NREM Accum. (Male Wistar rats; 30 mg/kg PO)	NREM Peak (Male Wistar rats; 30 mg/kg PO)	Onset (Male Wistar rats; 30 mg/kg PO)	other results
42.8 nM	O=C(O)CCCN1CCC(=C2c3ccccc3COc3ccccc32)CC1 [Series 73a]	14.5 min	–	27.6 min	47.3 min	62.2 %/hr	45 min	–
109 nM	CC(C)(CN1CCC(=C2c3ccccc3COc3ccccc32)CC1)C(=O)O [Series 74a]	9.9 min	5 to 6 h	22.3 min	43.4 min	64.4 %/hr	70 to 80 min	–
47.9 nM	CC(C)(CCN1CCC(=C2c3ccccc3COc3ccccc32)CC1)C(=O)O [Series 75a]	6.8 min	4 h	13.6 min	33.9 min	58.8 %/hr	70 to 85 min	Average Bout-Length (Male Wistar rats; 45 mg/kg PO): 10.8 min; Duration (Male Wistar rats; 45 mg/kg PO): 5 h; Maximum Bout Length (Male Wistar rats; 45 mg/kg PO): 19.4 min; NREM Accum. (Male Wistar rats; 45 mg/kg PO): 33.9 min; NREM Peak (Male Wistar rats; 45 mg/kg PO): 58.2 %/hr; Onset (Male Wistar rats; 45 mg/kg PO): 70 to 85 min
198 nM	CC(C)OC(=O)CN1CCC(=C2c3ccccc3COc3ccccc32)CC1 [dox7d-oxalate]	12.9 min	5 h	25.0 min	54.1 min	76.9 %/hr	85 min	–
